Reference: patent US9783536B2, “Nitrogen-containing heterocyclic compound or salt thereof” (FUJIFILM Corporation, priority 2013, dated 2017)
Where a name gives a salt, the structure may show the parent alone. Read-outs that look alike come from different tables or passages of the source.

Tests used:
human PI3Kα protein = target: T1, human PI3Kα protein (Homo sapiens, UniProt P42336); experiment: PI3Kα enzyme assay (ADP-Glo); assay type: biochemical; conditions: read-out: PI3Kα enzyme inhibitory activity
T1 construct: purchased Carna Biosciences, Inc; host or cells: baculovirus expression system
T1 sequence (P42336 whole entry): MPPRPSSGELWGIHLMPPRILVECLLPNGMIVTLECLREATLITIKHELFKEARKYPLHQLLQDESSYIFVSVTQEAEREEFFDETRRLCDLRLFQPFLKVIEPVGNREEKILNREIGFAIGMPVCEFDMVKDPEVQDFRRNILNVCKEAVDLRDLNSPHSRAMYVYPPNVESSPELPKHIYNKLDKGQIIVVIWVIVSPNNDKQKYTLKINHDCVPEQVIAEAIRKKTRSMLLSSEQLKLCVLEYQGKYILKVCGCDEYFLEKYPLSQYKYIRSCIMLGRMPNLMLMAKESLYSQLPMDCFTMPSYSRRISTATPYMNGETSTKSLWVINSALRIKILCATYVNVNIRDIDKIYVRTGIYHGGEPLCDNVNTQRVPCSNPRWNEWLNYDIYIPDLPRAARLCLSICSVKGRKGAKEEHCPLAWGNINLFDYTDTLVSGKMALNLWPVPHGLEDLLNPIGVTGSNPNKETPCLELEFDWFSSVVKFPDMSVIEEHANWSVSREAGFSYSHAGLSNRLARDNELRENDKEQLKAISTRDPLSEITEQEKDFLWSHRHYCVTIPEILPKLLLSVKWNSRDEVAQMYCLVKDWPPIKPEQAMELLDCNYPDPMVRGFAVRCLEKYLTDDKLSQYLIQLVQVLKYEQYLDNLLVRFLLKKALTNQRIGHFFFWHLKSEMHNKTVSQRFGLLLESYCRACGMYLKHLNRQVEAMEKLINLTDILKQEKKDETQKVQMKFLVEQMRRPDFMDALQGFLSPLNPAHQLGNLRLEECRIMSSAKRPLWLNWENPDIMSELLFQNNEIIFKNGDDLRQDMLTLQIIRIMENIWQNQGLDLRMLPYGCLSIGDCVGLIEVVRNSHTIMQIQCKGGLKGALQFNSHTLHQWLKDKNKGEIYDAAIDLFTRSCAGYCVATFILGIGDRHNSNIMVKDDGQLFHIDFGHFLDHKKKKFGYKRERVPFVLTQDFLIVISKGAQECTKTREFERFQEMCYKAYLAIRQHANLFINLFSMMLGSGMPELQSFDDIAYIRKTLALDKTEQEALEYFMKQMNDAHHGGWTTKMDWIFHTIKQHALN
T1 sequence (P27986 whole entry partner): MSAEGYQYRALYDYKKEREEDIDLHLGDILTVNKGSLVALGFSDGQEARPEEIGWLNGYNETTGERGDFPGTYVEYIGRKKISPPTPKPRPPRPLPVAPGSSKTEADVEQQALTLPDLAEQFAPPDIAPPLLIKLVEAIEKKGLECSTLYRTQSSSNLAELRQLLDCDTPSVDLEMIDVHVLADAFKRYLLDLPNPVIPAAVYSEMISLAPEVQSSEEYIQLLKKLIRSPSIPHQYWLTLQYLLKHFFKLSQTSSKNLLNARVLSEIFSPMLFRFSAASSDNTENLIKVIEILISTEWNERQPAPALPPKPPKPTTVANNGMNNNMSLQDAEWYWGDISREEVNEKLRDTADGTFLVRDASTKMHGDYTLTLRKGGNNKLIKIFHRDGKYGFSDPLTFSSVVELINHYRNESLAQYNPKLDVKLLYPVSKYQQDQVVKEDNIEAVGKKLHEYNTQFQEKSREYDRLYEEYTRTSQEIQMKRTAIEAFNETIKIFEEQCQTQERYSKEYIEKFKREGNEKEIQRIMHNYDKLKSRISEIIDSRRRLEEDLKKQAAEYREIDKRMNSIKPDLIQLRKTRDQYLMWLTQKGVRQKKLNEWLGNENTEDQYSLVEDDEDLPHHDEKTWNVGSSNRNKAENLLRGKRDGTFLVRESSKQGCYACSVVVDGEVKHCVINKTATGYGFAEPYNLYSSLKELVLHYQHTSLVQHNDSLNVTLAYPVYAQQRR
Method in brief: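 Biotinylated human PI3Kα (baculovirus-expressed, 4.5 nmol/L) pre-incubated 15 min with compound in Tris-HCl pH 7.5, MgCl2, BSA; reaction 60 min at 25° C with 50 μmol/L PIP2 and 100 μmol/L ATP final. ADP quantified by ADP-Glo luminescence; IC50 calculated.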

[1] = target: T2, GST fusion human ERK2 protein (Homo sapiens, UniProt P28482); experiment: ERK2 enzyme assay (1); assay type: biochemical; conditions: read-out: ERK2 enzyme inhibitory activity (1)
T2 construct: purchased Carna Biosciences, Inc; host or cells: E. coli expression system
T2 sequence (P28482 whole entry, the tested form may be a part): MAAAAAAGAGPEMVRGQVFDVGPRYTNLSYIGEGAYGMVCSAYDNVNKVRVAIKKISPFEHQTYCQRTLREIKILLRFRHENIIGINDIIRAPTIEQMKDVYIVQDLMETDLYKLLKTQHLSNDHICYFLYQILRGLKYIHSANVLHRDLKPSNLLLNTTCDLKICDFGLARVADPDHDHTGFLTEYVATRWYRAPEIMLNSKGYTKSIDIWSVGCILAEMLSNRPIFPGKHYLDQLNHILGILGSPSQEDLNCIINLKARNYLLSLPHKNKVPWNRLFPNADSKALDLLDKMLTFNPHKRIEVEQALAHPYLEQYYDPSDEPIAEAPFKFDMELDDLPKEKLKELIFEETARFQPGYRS
Experimental: In an ERK2 enzyme assay, GLUTATHIONE S-TRANSFERASE (GST) FUSION HUMAN ERK2 PROTEIN (manufactured by Carna Biosciences, Inc.), which was produced by using an E. coli expression system, was used.
12 μL of a reaction liquid (2.5 nmol/L ERK2, 100 mmol/L Hepes, 10 mmol/L MgCl2, 1.5 mmol/L DTT, 0.003% Brij35, pH 7.5) including ERK2 protein and a test compound having a predetermined concentration was allowed to stand at room temperature for 15 minutes. Then, 3 μL of a mixture liquid of FL-PEPTIDE8 (5-FAM-IPTSPITTTYFFFKKK-COOH) (manufactured by Caliper Life Sciences), which is substrate peptide, and ATP (manufactured by Sigma-Aldrich Co. LLC.) was added thereto such that the final concentrations thereof became 4.25 μmol/L and 43.1 μmol/L, respectively, and an enzyme reaction was performed by allowing to stand at 25° C. for 120 minutes.
After the reaction, the enzyme reaction was stopped by adding 30 μL of a reaction stopper liquid (100 mmol/L HEPES, 11.2 mmol/L EDTA, 5.6% Brij35, pH 7.5) including a 0.5% COATING REAGENT 8 (trade name, manufactured by Perkin Elmer Inc.) thereto. Then, phosphorylated peptide and non-phosphorylated peptide were separated using LABCHIP EZ READER (trade name, manufactured by Caliper Life Sciences), and the porportion of the phosphorylated peptide was quantified.
The inhibitory activities of the compounds were evaluated using IC50 (50% inhibitory concentration). The IC50 was calculated using XLFIT (trade name, manufactured by ID Business Solutions).

[2] = 4.5 nmol/L PI3Kα, PIP2 50 μmol/L, ATP 100 μmol/L
[3] = 2.5 nmol/L ERK2, ATP 43.1 μmol/L

IC50 (human PI3Kα protein) [µM]	IC50 ([1]; ERK2 enzyme assay (1)) [µM]	IC50 (human PI3Kα protein; [2]) [µM]	IC50 [1, 3] [µM]	SMILES
1 to 10	< 1			O[C@@H]1CCN(c2cnc3ccc(Nc4nnc(C5CCCC5)s4)nc3c2)C1 [Example 0313]
1 to 10	< 1			COCCN(C)c1cnc2ccc(Nc3nnc(C4CCCC4)s3)nc2c1 [Example 0309]
< 1	< 1			OCc1nnc(Nc2ccc3ncc(-c4cnn(CCCN5CCCC5)c4)cc3n2)s1 [Example 0239, (5-((7-(1-(3-(Pyrrolidin-1-yl)propyl)-1H-pyrazol-4-yl)-1,5-naphthyridin-2-yl)amino)-1,3,4-thiadiazol-2-yl)methanol]
< 1	< 1			Cc1nnc(Nc2ccc3ncc(-c4cnn(CCCN5CCCC5)c4)cc3n2)s1 [Example 0323]
10 to 50	< 1			c1nc2ccc(Nc3nnc(C4CCCC4)s3)nc2cc1C1CCNCC1 [Example 0332, 5-Cyclopentyl-N-(7-(piperidin-4-yl)-1,5-naphthyridin-2-yl)-1,3,4-thiadiazole-2-amine hydrochloride]
1 to 10	< 1			c1n[nH]cc1Nc1cnc2ccc(Nc3nnc(N4CCOCC4)s3)nc2c1 [Example 0225, N^2-(5-morpholino-1,3,4-thiadiazol-2-yl)-N^7-(1H-pyrazol-4-yl)-1,5-naphthyridine-2,7-diamine]
< 1	< 1			CC(C)c1nnc(Nc2ccc3nccc(-c4ccncc4)c3n2)s1 [Example 0269, 5-isopropyl-N-(8-(pyridin-4-yl)-1,5-naphthyridin-2-yl)-1,3,4-thiadiazole-2-amine]
		< 1	< 1	c1cnn(-c2cncc(Nc3cnc4ccc(Nc5nnc(C6CCCC6)s5)nc4c3)c2)c1 [Example 0073]
		< 1	< 1	c1cc(N2CCOCC2)ncc1Nc1cnc2ccc(Nc3nnc(C4CCCC4)s3)nc2c1 [Example 0066]
		< 1	1 to 10	c1ccc2c(Nc3cnc4ccc(Nc5nnc(C6CCCC6)s5)nc4c3)cncc2c1 [Example 0075]
< 1	< 1			CCC(C)(C)c1cnnc(Nc2ccc3ncc(-c4cnn(CCCN5CCCC5)c4)cc3n2)c1 [Example 0296]
		< 1	< 1	CC(C)c1nnc(Nc2ccc3nccc(Nc4cccnc4)c3n2)s1 [Example 0006]
		< 1	< 1	c1ncc(OCCN2CCCC2)cc1Nc1cnc2ccc(Nc3nnc(C4CCCC4)s3)nc2c1 [Example 0083]
		< 1	< 1	COc1ccc(Nc2cnc3ccc(Nc4nnc(C5CCCC5)s4)nc3c2)cn1 [Example 0067]
		10 to 50	1 to 10	c1ccc(-c2ccc(Nc3cnc4ccc(Nc5nnc(C6CCCC6)s5)nc4c3)cn2)cc1 [Example 0069]
		< 1	< 1	CN1CCN(c2cnc3ccc(Nc4nnc(C5CCCC5)s4)nc3c2)CC1=O [Example 0054]
		1 to 10	< 1	CC(C)c1nnc(Nc2ccc3ncc(-c4cnn(C)c4)nc3n2)s1 [Example 0010, 5-isopropyl-N-(3-(1-methyl-1H-pyrazol-4-yl)pyrido[2,3-b]pyrazine-6-yl)-1,3,4-thiadiazole-2-amineformate]
		10 to 50	< 1	Cn1cc(-c2cnc3ccc(Nc4nnc(CCc5ccccc5)s4)nc3c2)cn1 [Example 0171, N-(7-(1-methyl-1H-pyrazol-4-yl)-1,5-naphthyridin-2-yl)-5-phenethyl-1,3,4-thiadiazole-2-amine]
1 to 10	< 1			Cc1cnnc(Nc2ccc3ncc(Nc4cncnc4)cc3n2)c1 [Example 0388, N^2-(5-methylpyridazin-3-yl)-N^7-(pyrimidin-5-yl)-1,5-naphthyridine-2,7-diamine]
		< 1	< 1	CC(C)c1cnc(Nc2ccc3ncc(-c4cnn(C)c4)cc3n2)s1 [Example 0123, 5-isopropyl-N-(7-(1-methyl-1H-pyrazol-4-yl)-1,5-naphthyridin-2-yl)thiazole-2-amine]
< 1	< 1			CC(C)c1nnc(Nc2ccc3nccc(-c4cccc(C(N)=O)c4)c3n2)s1 [Example 0287]
1 to 10	< 1			c1n[nH]cc1-c1cnc2ccc(Nc3nnc(C4CCCC4)s3)nc2c1 [Example 0201]
< 1	< 1			c1cc(Nc2cnc3ccc(Nc4nnc(C5CCCC5)s4)nc3c2)ncn1 [Example 0210]

IC50 (human PI3Kα protein) [µM]	IC50 ([1]; ERK2 enzyme assay (1)) [µM]	IC50 (human PI3Kα protein; [2]) [µM]	IC50 [1, 3] [µM]	SMILES
		1 to 10	1 to 10	CC(C)c1nnc(Nc2ccc3nccc(Nc4ccccc4)c3n2)s1 [Example 0009]
< 1	< 1			CC(C)c1cnnc(Nc2ccc3ncc(-c4cnn(-c5cccnc5)c4)cc3n2)c1 [Example 0398, N-(5-isopropylpyridazin-3-yl)-7-(1-(pyridin-3-yl)-1H-pyrazol-4-yl)-1,5-naphthyridine-2-amine]
1 to 10	< 1			CC(C)c1cnnc(Nc2ccc3ncc(-c4ccccn4)cc3n2)c1 [Example 0369]
		< 1	< 1	CC(C)(C)c1cncc(Nc2cnc3ccc(Nc4nnc(C5CCCC5)s4)nc3c2)c1 [Example 0103]
		< 1	< 1	CC(C)OCc1nn(C)cc1-c1cnc2ccc(Nc3nnc(C(C)C)s3)nc2c1 [Example 0146]
		< 1	< 1	CC(=O)N1CCCC(Nc2cnc3ccc(Nc4nnc(C5CCCC5)s4)nc3c2)C1 (stereo not drawn) [Example 0076]
< 1	< 1			Cc1cnnc(Nc2ccc3ncc(-c4cn(C)nc4CO)cc3n2)c1 [Example 0397, (1-methyl-4-(6-((5-methylpyridazin-3-yl)amino)-1,5-naphthyridin-3-yl)-1H-pyrazol-3-yl)methanol]
		< 1	1 to 10	CCOC(=O)c1cnc(Nc2ccc3ncc(-c4cnn(C)c4)cc3n2)s1 [Example 0035, ethyl 2-((7-(1-methyl-1H-pyrazol-4-yl)-1,5-naphthyridin-2-yl)amino)thiazole-5-carboxylate]
< 1	< 1			c1cc(Nc2cnc3ccc(Nc4nnc(C5CCCC5)s4)nc3c2)ccn1 [Example 0208]
10 to 50	1 to 10			COc1cc(-c2ccnc3ccc(Nc4nnc(C(C)C)s4)nc23)ccn1 [Example 0280]
< 1	< 1			CC(C)c1cnnc(Nc2ccc3ncc(Nc4cncnc4)cc3n2)c1 [Example 0387, N^2-(5-isopropylpyridazin-3-yl)-N^7-(pyrimidin-5-yl)-1,5-naphthyridine-2,7-diamine]
< 1	< 1			CC(C)c1nnc(Nc2ccc3nccc(-c4cnn(C)c4)c3n2)s1 [Example 0273]
		< 1	< 1	CN1CCN(c2cncc(Nc3cnc4ccc(Nc5nnc(C6CCCC6)s5)nc4c3)c2)CC1 [Example 0102]
		< 1	< 1	CC(C)c1cnnc(Nc2ccc3ncc(-c4cnn(CCCN(C)C)c4)cc3n2)c1 [Example 0020, 7-(1-(3-(Dimethylamino)propyl)-1H-pyrazol-4-yl)-N-(5-isopropylpyridazin-3-yl)-1,5-naphthyridine-2-amine]
< 1	< 1			COc1ccccc1-c1ccnc2ccc(Nc3nnc(C(C)C)s3)nc12 [Example 0270]
		< 1	< 1	Cc1nn(CCCN2CCCC2)cc1-c1cnc2ccc(Nc3cc(C(C)C)cnn3)nc2c1 [Example 0156, N-(5-isopropylpyridazin-3-yl)-7-(3-methyl-1-(3-(pyrrolidin-1-yl)propyl)-1H-pyrazol-4-yl)-1,5-naphthyridine-2-amine]
		1 to 10	< 1	COc1cc(Nc2cnc3ccc(Nc4nnc(C5CCCC5)s4)nc3c2)cc(OC)c1 [Example 0081]
< 1	< 1			CC(C)c1nnc(Nc2ccc3nccc(-c4ccc(C(N)=O)cc4)c3n2)s1 [Example 0288]
< 1	< 1			COCCCNc1cnc2ccc(Nc3nnc(C4CCCC4)s3)nc2c1 [Example 0307]
< 1	< 1			c1nc2ccc(Nc3nnc(C4CCCC4)s3)nc2cc1NC1CCOCC1 [Example 0312]
1 to 10	1 to 10			Cc1cc(Nc2ccc3ncc(-c4cnn(C)c4)cc3n2)n[nH]1 [Example 0277, N-(5-methyl-1H-pyrazol-3-yl)-7-(1-methyl-1H-pyrazol-4-yl)-1,5-naphthyridine-2-amine]
< 1	< 1			c1cncc(Nc2cnc3ccc(Nc4nnc(C5CCCC5)s4)nc3c2)c1 [Example 0207]
